Laboratory results as given in PubChem BioAssay (NCI).
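Each compound was tested at five concentrations against cells in 96-well plates for 48 hours. TGI denotes the concentration required for complete inhibition of growth.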

Experiments:
Test in all cases: inhibition of tumour cell growth, NCI panel, 48 h
[1] = test system: CAKI-1 renal
[2] = test system: MDA-MB-231 breast
[3] = test system: ACHN renal
[4] = test system: SF-268 CNS
[5] = test system: SR leukemia
[6] = test system: NCI-H522 lung
[7] = test system: MALME-3M melanoma
[8] = test system: MOLT-4 leukemia
[9] = test system: 786-0 renal
[10] = test system: T-47D breast
[11] = test system: SNB-75 CNS
[12] = test system: HOP-92 NSCLC

Compound | TGI [1] [µM] | TGI [2] [µM] | TGI [3] [µM] | TGI [4] [µM] | TGI [5] [µM] | TGI [6] [µM] | TGI [7] [µM] | TGI [8] [µM] | TGI [9] [µM] | TGI [10] [µM] | TGI [11] [µM] | TGI [12] [µM]
O=c1[nH]c(Nc2ccc(Br)c(C(F)(F)F)c2)nc2nc[nH]c12 | > 100 | > 100 | > 100 | > 100 | > 100 | 63.5 | > 100 | 88.5 | > 100 | > 100 | > 100 | > 100
COc1ccc(S(=O)(=O)Nc2ccc(-c3csc(N4C(=O)/C(=C/c5ccccc5[N+](=O)[O-])N=C4c4ccccc4)n3)cc2)cc1Cl | > 100 | 78.5 | > 100 | > 100 | > 100 | > 100 | > 100 | > 100 | > 100 | 75.2 | > 100 | 87.5
COC(=O)C1=C(C)NC(=O)N2[C@@H](CCOCc3ccccc3)CC[C@@H]12 | > 50 | > 50 | > 50 | > 50 | > 50 | > 50 | > 50 | > 50 | > 50 | 49.1 | > 50 | > 50
Nc1ncnc2c1ncn2[C@H]1C=C[C@@H](NO)C1 | > 100 | > 100 | > 100 | > 100 | > 100 | > 100 | > 100 | > 100 | > 100 | > 100 | > 100 | > 100
CC(C)C1CSC2N1C(=O)C2(OCc1ccccc1)C1CC1 (stereo not drawn) | > 100 | > 100 | > 100 | > 100 | > 100 | > 100 | > 100 | > 100 | > 100 | > 100 | > 100 | > 100
CC(=O)Nc1nc(C)c(S(=O)(=O)NC(=O)NC2NC(=O)NC2=O)s1 (stereo not drawn) | > 100 | > 100 | > 100 | > 100 | > 100 | > 100 | > 100 | > 100 | > 100 | > 100 | > 100 | > 100
Cc1ccc2nc3ccccc3c(C3C4C(=O)N(c5ccc(F)cc5)C(=O)C4ON3C(C(N)=O)c3ccccc3)c2c1 (stereo not drawn) | > 100 | > 100 | > 100 | > 100 | > 100 | 57.8 | 80.7 | > 100 | > 100 | > 100 | > 100 | > 100
NCC(=O)Nc1ccccc1 | > 100 | > 100 | > 100 | > 100 | > 100 | > 100 | > 100 | > 100 | > 100 | > 100 | > 100 | > 100
NC1=Nc2ccccc2Sc2nncn21 | > 100 | > 100 | > 100 | > 100 | > 100 | > 100 | > 100 | > 100 | > 100 | > 100 | > 100 | > 100
